Test results as given in patent publication US8598313B2, “Compositions for ameliorating cell proliferative disorders and methods of making and using them” (priority 2010, dated 2013).

Tests used:
cancer cell lines = conditions: cytotoxicity SAR; cited from earlier work
[1] = system: NCI H-460 human lung tumor cells; assay: Cytotoxicity in NCI H-460 human lung tumor cells, MTT reduction; format: cell-based
Experimental: Cytotoxicity was measured in NCI H-460 human lung tumor cells with cell viability being determined by MTT reduction.^[23] Cells were seeded in 96-well plates at 6000 cells/well in 180 μL of medium. After 24 h, the test chemicals were dissolved in DMSO and diluted into medium without fetal bovine serum and then added at […]. DMSO was less than 0.5% of the final concentration. After 48 h, the medium was removed and cell viability determined.

Q: For CC[C@H](C)[C@@H]1NC(=O)[C@H](C)N(C)C(=O)[C@H](Cc2ccc(OC)cc2)NC(=O)/C(C)=C/[C@H]2CSC(=N2)[C@@H](C)[C@@H](O)C[C@H](C)C[C@@H](C(C)(C)C)OC(=O)[C@@H]2CCCN2C1=O [apratoxin B], which “loss of activity compared to apratoxin A” value (cancer cell lines) is on record?
A: 30 to 40 fold

Q: For apratoxin E, which “activity compared to apratoxin A” value (cancer cell lines) is on record?
A: only a modest loss of activity

Q: With CC[C@H](C)[C@H]1C(=O)N2CCC[C@H]2C(=O)O[C@H]([C@@H](C)CC(C)(C)C)C[C@@H](C)C[C@H](O)[C@H](C)C2=N[C@@H](/C=C(\C)C(=O)N[C@@H](Cc3ccc(OC)cc3)C(=O)N(C)[C@@H](C)C(=O)N1C)CS2 [apratoxin D] as the compound, how does the “activity compared to apratoxin A” value (cancer cell lines) read?
A: roughly equivalent activity

Q: For COc1ccc(C[C@@H]2NC(=O)/C(C)=C/C3CSC(=N3)[C@@H](C)[C@@H](O)C[C@H](C)C[C@@H](C(C)(C)C)OC(=O)[C@H](C)N(C)C(=O)[C@H](C(C)C)N(C)C(=O)[C@H](C)N(C)C2=O)cc1 (stereo partly shown) [apratoxin G], which IC50 ([1]; H-460 cancer cells, MTT, 48 h) is on record?
A: 14 nM

Q: What about the “reduction in activity compared to apratoxin F” value ([1]; N-methyl isoleucine exchanged for N-methyl valine) of the same compound?
A: 7 fold

Q: Which “loss of activity compared to apratoxin A” value (cancer cell lines) does the source give for CC[C@H](C)[C@H]1C(=O)N2CCC[C@H]2C(=O)O[C@H](C(C)C)C[C@@H](C)C[C@H](O)[C@H](C)C2=N[C@@H](/C=C(\C)C(=O)N[C@@H](Cc3ccc(OC)cc3)C(=O)N(C)[C@@H](C)C(=O)N1C)CS2 [apratoxin C] here?
A: 2 fold

Q: For (E)-34,35-dehydro-apratoxin A, which “loss of activity compared to apratoxin A” value (cancer cell lines) is on record?
A: 72-230 fold
